Source: patent US11884649B2, “IRE1α inhibitors and uses thereof” (The Regents of the University of California, priority 2020, dated 2024)

Experiments:
IRE1α* = molecular target: T1, IRE1α* (Homo sapiens, UniProt O75460); assay: In vitro RNase activity assay, XBP1-mini substrate cleavage, inhibitor titrations; format: biochemical; conditions: relative to apo IRE1α*
T1 construct: human IRE1α (residues 547-977, IRE1α*) was expressed in SF9 insect cells; His6 (N); made in house; host or cells: Sf9 insect cells (Bac-to-Bac baculovirus)
T1 sequence (O75460 547-977): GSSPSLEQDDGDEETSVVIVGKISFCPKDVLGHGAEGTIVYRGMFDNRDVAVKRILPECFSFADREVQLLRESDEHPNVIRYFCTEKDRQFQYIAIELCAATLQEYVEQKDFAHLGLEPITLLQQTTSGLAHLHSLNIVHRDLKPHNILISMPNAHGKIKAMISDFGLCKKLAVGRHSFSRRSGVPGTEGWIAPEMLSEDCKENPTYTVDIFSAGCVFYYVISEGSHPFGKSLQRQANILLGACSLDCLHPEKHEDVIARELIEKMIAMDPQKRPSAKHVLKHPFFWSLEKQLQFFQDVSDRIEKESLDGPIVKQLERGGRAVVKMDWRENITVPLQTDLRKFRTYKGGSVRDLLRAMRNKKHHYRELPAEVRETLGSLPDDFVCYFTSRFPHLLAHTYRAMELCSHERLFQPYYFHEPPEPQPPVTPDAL
Method: In Vitro RNase Activity Assay Inhibitor Titrations
50 nM IRE1α* was incubated with inhibitor (initial concentration of 10 or 60 μM, three-fold serial dilutions) or DMSO for 30 min in assay buffer (20 mM Tris, 50 mM NaCl, 1 mM MgCl2, 2 mM DTT, 0.05% Triton X-100 (v/v), pH 7.5). Assays were initiated by adding 10 μL of XBP1-mini substrate (5′-Alex647-CAUGUCCGCAGCGCAUG-IowaBlack-FQ-3′ (SEQ ID NO: 1); IDT) to the wells at a final concentration of 200 nM and a final well volume of 30 μL. Fluorescence was detected on a Perkin Elmer Envision Microplate Reader at excitation and emission wavelengths of 650 nm and 665 nm. Dose-response curves were fit using “one-site fit log IC50” parameter using GraphPad Prism analysis software.

XBP1 mRNA splicing [1] = assay: XBP1 mRNA splicing in INS-1 cells conditionally overexpressing IRE1α (Dox); format: cell-based, rat; conditions: 5 ng/mL Dox; 20 μM for XBP1s immunoblot
Method: (§1) RNA Isolation, Quantitative Real-Time PCR, and Primers
INS-1 or isogenic IRE1α-overexpressing INS-1 cells were plated onto Poly-D-Lysine coated tissue culture plate and grown for 48 hrs. Inhibitors or DMSO were added to the media and incubated for 1 hour at 37° C. with 5% CO2 prior to addition of ER stress agents or Dox as indicated. RNA was isolated from whole cells using either QIAGEN RNeasy Mini kits or Trizol (Invitrogen) and reverse transcribed as above to obtain total cDNA. Then, XBP-1 primers were used to amplify an XBP-1 amplicon spanning the 26 nt intron from the cDNA samples in a regular 3-step PCR. Thermal cycles were: 5 min at 95° C., 30 cycles of 30 s at 95° C., 30 s at 60° C., and 1 min at 72° C., followed by 72° C. for 15 min, and hold at 4° C. Primers used for XBP-1 mRNA splicing were as follows: sense primer XBP1.3 S (5′ […]-3′ (SEQ ID NO:2)) and antisense primer XBP1.2AS (5′-[…]-3′ (SEQ ID NO:3)). PCR fragments were then digested by PstI, resolved on 3% agarose gels, stained with EtBr and quantified by densitometry using ImageJ (NIH). For standard mRNA detection, generally […] total RNA was reverse transcribed using the QuantiTect Reverse Transcription Kit (QIAGEN). For qPCR, we used SYBR green (QIAGEN) and StepOnePlus Real-Time PCR System (Applied Biosystems). Thermal cycles were: 5 min at 95° C., 40 cycles of 15 sec at 95° C., 30 sec at 60° C. Gene expression levels were normalized to Beta Actin. Primers used for qPCR of RIDD targets were as follows: Beta Actin Fwd: 5′-[…]-3′ (SEQ ID NO:4), Beta Actin Rev: 5′-[…]-3′ (SEQ ID NO:5), Insulin 1 Fwd: 5′-GTCCTCTGGGAGCCCAAG-3′ (SEQ ID NO:6), Insulin 1 Rev: 5′-ACAGAGCCTCCACCAGG-3′ (SEQ ID NO:7), Insulin 2 Fwd: 5′-ATCCTCTGGGAGCCCCGC-3′ (SEQ ID NO:8), Insulin 2 Rev: 5′-AGAGAGCTTCCACCAAG-3′ (SEQ ID NO:9), Blos1 Fwd: 5′-[…]-3′ (SEQ ID NO:10), and Blos1 Rev: 5′-[…]-3′ (SEQ ID NO:11).
(§2) RNA was extracted using Trizol (Invitrogen), DNaseI treated, and cDNA products encompassing the intron amplified by QuantiTect Reverse Transcription Kit (Qiagen). sense Primer rXBP Forward (5′-[…]-3′ (SEQ ID NO:12)) and antisense primer rXBP Reverse (5′-[…]-3′ (SEQ ID NO:13)) were used. PCR fragments were digested by PstI, resolved on 3% agarose gels, stained with EtBr, and quantified by densitometry.
as §2, with “XBP1 splicing for FIGS. 33A-33F: RNA” for “RNA”, “(Invitrogen),” for “(Invitrogen), DNaseI treated, and”, “(Qiagen). Sense” for “(Qiagen). sense”, “rXBP splicing” for “rXBP”

XBP1 mRNA splicing [2] = assay: XBP1 splicing in ER-stressed INS-1 cells; format: cell-based, rat; conditions: DTT, 20 μM compound
Method: as §1
(§3) INS-1 or isogenic IRE1α-overexpressing INS-1 cells were plated onto Poly-D-Lysine coated tissue culture plate and grown for 48 hrs. Inhibitors or DMSO were added to the media and incubated for 1 hour at 37° C. with 5% CO2 prior to addition of ER stress agents or Dox as indicated. RNA was isolated from whole cells using either QIAGEN RNeasy Mini kits or Trizol (Invitrogen) and reverse transcribed as above to obtain total cDNA. Then, XBP-1 primers were used to amplify an XBP-1 amplicon spanning the 26 nt intron from the cDNA samples in a regular 3-step PCR. Thermal cycles were: 5 min at 95° C., 30 cycles of 30 s at 95° C., 30 s at 60° C., and 1 min at 72° C., followed by 72° C. for 15 min, and hold at 4° C. Primers used for XBP-1 mRNA splicing were as follows: sense primer XBP1.3 S (5′ […]-3′ (SEQ ID NO:2)) and antisense primer XBP1.2AS (5′-[…]-3′ (SEQ ID NO:3)). PCR fragments were then digested by PstI, resolved on 3% agarose gels, stained with EtBr and quantified by densitometry using ImageJ (NIH). For standard mRNA detection, generally […] total RNA was reverse transcribed using the QuantiTect Reverse Transcription Kit (QIAGEN). For qPCR, we used SYBR green (QIAGEN) and StepOnePlus Real-Time PCR System (Applied Biosystems). Thermal cycles were: 5 min at 95° C., 40 cycles of 15 sec at 95° C., 30 sec at 60° C. […]

XBP1 mRNA splicing [3] = assay: XBP1 splicing in human islets subjected to ER stress; format: cell-based; conditions: DTT, 20 μM compound
Method: as §3, with “(QIAGEN).” for “(QIAGEN). For qPCR, we used SYBR green (QIAGEN) and StepOnePlus Real-Time PCR System (Applied Biosystems). Thermal cycles were: 5 min at 95° C., 40 cycles of 15 sec at 95° C., 30 sec at 60° C.”
Non-diabetic human islets were obtained and cultured in supplemented Prodo Islet Medium (PIM(S) from Prodo Labs). […] Collected media were analyzed by anti-insulin ELISA (EMD Millipore) and insulin levels were normalized to total protein amount.

Row | Structure (SMILES) | RNase activity of IRE1α* (in words) (IRE1α*) | XBP1 mRNA splicing and expression of Xbp1s (XBP1 mRNA splicing [1]) | XBP1 mRNA splicing (XBP1 mRNA splicing [2]) | XBP1 mRNA splicing (XBP1 mRNA splicing [3])
1 | O=S(=O)(CC(F)(F)F)Nc1ccc(Oc2ncccc2-c2ccnc(N[C@H]3CCCNC3)n2)c2ccccc12 (stereo in doubt) [PAIR1, 2,2,2-trifluoro-N-(4-(3-(2-(piperidin-3-ylamino)pyrimidin-4-yl)pyridin-2-yloxy)naphthalen-1-yl)ethanesulfonamide] | partially inhibit | largely preserved | only weakly inhibited | only weakly inhibited
2 | O=S(=O)(CCC(F)(F)F)Nc1ccc(Oc2ncccc2-c2ccnc(NC3CCCNC3)n2)c2ccccc12 (centres unmarked) [KIRA9, 3,3,3-trifluoro-N-(4-(3-(2-(piperidin-3-ylamino)pyrimidin-4-yl)pyridin-2-yloxy)naphthalen-1-yl)propane-1-sulfonamide] | – | more vigorously inhibited these outputs | – | –
